{"source": "PubChem BioAssay AID1259409", "about": "(Chemical Carcinogenesis Research Information System (CCRIS), 2018)", "origin": "cited, not measured here", "system": "rodent chemically induced tumor inhibition, incidence and multiplicity", "assay": "CCRIS tumor inhibitor studies", "data": [{"smiles": "NC(=O)c1cccnc1", "values": [{"measurement": "tumour outcome (control, treated, inhibition, significance)", "setting": "Carcinogen: N-NITROSOBIS(2-OXOPROPYL)AMINE, 60599-38-4, Dose [Inhibitor]: 0, 0.2% IN DRINKING WATER FOR 49 WK POST CARCINOGEN TREATMENT (STUDY DURATION: 52 WK), Route [Inhibitor]: ORAL, Species: HAMSTER, Strain/Sex: SYRIAN GOLDEN/FEMALE, Target Tissue: Type of Lesion: TRACHEA: PAPILLOMA, Dose [Carcinogen]: 10 MG/KG BW 1/WK FOR FIRST 3 WK OF STUDY DURATION, Promoter: NONE", "result": "1/30 (3%), 0/29 (0%), 100%, not significant"}, {"measurement": "tumour outcome (control, treated, inhibition, significance)", "setting": "Carcinogen: N-NITROSOBIS(2-OXOPROPYL)AMINE, 60599-38-4, Dose [Inhibitor]: 0, 0.5% IN DRINKING WATER FOR 49 WK BEGINNING POST CARCINOGEN TREATMENT (STUDY DURATION: 52 WK), Route [Inhibitor]: ORAL, Species: HAMSTER, Strain/Sex: SYRIAN/FEMALE, Target Tissue: Type of Lesion: PANCREAS: ADENOCARCINOMA, Dose [Carcinogen]: 10 MG/KG 1/WK FOR 3 WK, Promoter: NONE", "result": "18/30 (60%), 21/30 (70%), -17%, not significant"}, {"measurement": "tumour outcome (control, treated, inhibition, significance)", "setting": "Carcinogen: N-NITROSOBIS(2-OXOPROPYL)AMINE, 60599-38-4, Dose [Inhibitor]: 0, 0.5% IN DRINKING WATER FOR 49 WK POST CARCINOGEN TREATMENT (STUDY DURATION: 52 WK), Route [Inhibitor]: ORAL, Species: HAMSTER, Strain/Sex: SYRIAN GOLDEN/FEMALE, Target Tissue: Type of Lesion: KIDNEY: NEPHROBLASTOMA, Dose [Carcinogen]: 10 MG/KG BW 1/WK FOR FIRST 3 WK OF STUDY DURATION, Promoter: NONE", "result": "2/30 (7%), 0/30 (0%), 100%, not significant"}, {"measurement": "outcome", "setting": "Carcinogen: N-NITROSOBIS(2-OXOPROPYL)AMINE, 60599-38-4, Dose [Inhibitor]: 0, 0.5% IN DRINKING WATER FOR 49 WK POST CARCINOGEN TREATMENT (STUDY DURATION: 52 WK), Route [Inhibitor]: ORAL, Species: HAMSTER, Strain/Sex: SYRIAN GOLDEN/FEMALE, Target Tissue: Type of Lesion: KIDNEY: RENAL CELL ADENOMA, Dose [Carcinogen]: 10 MG/KG BW 1/WK FOR FIRST 3 WK OF STUDY DURATION, Promoter: NONE", "result": "0/30 (0%), 2/30 (7%), -100%, not significant"}, {"measurement": "tumour outcome (control, treated, inhibition, significance)", "setting": "Carcinogen: N-NITROSOBIS(2-OXOPROPYL)AMINE, 60599-38-4, Dose [Inhibitor]: 0, 0.5% IN DRINKING WATER FOR 49 WK POST CARCINOGEN TREATMENT (STUDY DURATION: 52 WK), Route [Inhibitor]: ORAL, Species: HAMSTER, Strain/Sex: SYRIAN GOLDEN/FEMALE, Target Tissue: Type of Lesion: KIDNEY: RENAL CELL CARCINOMA, Dose [Carcinogen]: 10 MG/KG BW 1/WK FOR FIRST 3 WK OF STUDY DURATION, Promoter: NONE", "result": "1/30 (3%), 2/30 (7%), -133%, not significant"}, {"measurement": "tumour outcome (control, treated, inhibition, significance)", "setting": "Carcinogen: N-NITROSOBIS(2-OXOPROPYL)AMINE, 60599-38-4, Dose [Inhibitor]: 0, 0.5% IN DRINKING WATER FOR 49 WK POST CARCINOGEN TREATMENT (STUDY DURATION: 52 WK), Route [Inhibitor]: ORAL, Species: HAMSTER, Strain/Sex: SYRIAN GOLDEN/FEMALE, Target Tissue: Type of Lesion: LIVER: CHOLANGIOCELLULAR ADENOMA, Dose [Carcinogen]: 10 MG/KG BW 1/WK FOR FIRST 3 WK OF STUDY DURATION, Promoter: NONE", "result": "1/30 (3%), 3/30 (10%), -233%, not significant"}, {"measurement": "outcome", "setting": "Carcinogen: N-NITROSOBIS(2-OXOPROPYL)AMINE, 60599-38-4, Dose [Inhibitor]: 0, 0.5% IN DRINKING WATER FOR 49 WK POST CARCINOGEN TREATMENT (STUDY DURATION: 52 WK), Route [Inhibitor]: ORAL, Species: HAMSTER, Strain/Sex: SYRIAN GOLDEN/FEMALE, Target Tissue: Type of Lesion: LIVER: CHOLANGIOCELLULAR CARCINOMA, Dose [Carcinogen]: 10 MG/KG BW 1/WK FOR FIRST 3 WK OF STUDY DURATION, Promoter: NONE", "result": "0/30 (0%), 3/30 (10%), -%, not significant"}, {"measurement": "outcome", "setting": "Carcinogen: N-NITROSOBIS(2-OXOPROPYL)AMINE, 60599-38-4, Dose [Inhibitor]: 0, 0.5% IN DRINKING WATER FOR 49 WK POST CARCINOGEN TREATMENT (STUDY DURATION: 52 WK), Route [Inhibitor]: ORAL, Species: HAMSTER, Strain/Sex: SYRIAN GOLDEN/FEMALE, Target Tissue: Type of Lesion: LIVER: CYSTADENOMA, Dose [Carcinogen]: 10 MG/KG BW 1/WK FOR FIRST 3 WK OF STUDY DURATION, Promoter: NONE", "result": "0/30 (0%), 2/30 (7%), -%, not significant"}, {"measurement": "tumour outcome (control, treated, inhibition, significance)", "setting": "Carcinogen: N-NITROSOBIS(2-OXOPROPYL)AMINE, 60599-38-4, Dose [Inhibitor]: 0, 0.5% IN DRINKING WATER FOR 49 WK POST CARCINOGEN TREATMENT (STUDY DURATION: 52 WK), Route [Inhibitor]: ORAL, Species: HAMSTER, Strain/Sex: SYRIAN GOLDEN/FEMALE, Target Tissue: Type of Lesion: LIVER: HEPATOCELLULAR ADENOMA, Dose [Carcinogen]: 10 MG/KG BW 1/WK FOR FIRST 3 WK OF STUDY DURATION, Promoter: NONE", "result": "2/30 (7%), 4/30 (13%), -86%, not significant"}, {"measurement": "tumour outcome (control, treated, inhibition, significance)", "setting": "Carcinogen: N-NITROSOBIS(2-OXOPROPYL)AMINE, 60599-38-4, Dose [Inhibitor]: 0, 0.5% IN DRINKING WATER FOR 49 WK POST CARCINOGEN TREATMENT (STUDY DURATION: 52 WK), Route [Inhibitor]: ORAL, Species: HAMSTER, Strain/Sex: SYRIAN GOLDEN/FEMALE, Target Tissue: Type of Lesion: LIVER: HEPATOCELLULAR CARCINOMA, Dose [Carcinogen]: 10 MG/KG BW 1/WK FOR FIRST 3 WK OF STUDY DURATION, Promoter: NONE", "result": "2/30 (7%), 2/30 (7%), 0%, not significant"}, {"measurement": "tumour outcome (control, treated, inhibition, significance)", "setting": "Carcinogen: N-NITROSOBIS(2-OXOPROPYL)AMINE, 60599-38-4, Dose [Inhibitor]: 0, 0.5% IN DRINKING WATER FOR 49 WK POST CARCINOGEN TREATMENT (STUDY DURATION: 52 WK), Route [Inhibitor]: ORAL, Species: HAMSTER, Strain/Sex: SYRIAN GOLDEN/FEMALE, Target Tissue: Type of Lesion: LUNG: ADENOCARCINOMA, Dose [Carcinogen]: 10 MG/KG BW 1/WK FOR FIRST 3 WK OF STUDY DURATION, Promoter: NONE", "result": "11/30 (37%), 9/30 (30%), 19%, not significant"}, {"measurement": "tumour outcome (control, treated, inhibition, significance)", "setting": "Carcinogen: N-NITROSOBIS(2-OXOPROPYL)AMINE, 60599-38-4, Dose [Inhibitor]: 0, 0.5% IN DRINKING WATER FOR 49 WK POST CARCINOGEN TREATMENT (STUDY DURATION: 52 WK), Route [Inhibitor]: ORAL, Species: HAMSTER, Strain/Sex: SYRIAN GOLDEN/FEMALE, Target Tissue: Type of Lesion: LUNG: ADENOMA, Dose [Carcinogen]: 10 MG/KG BW 1/WK FOR FIRST 3 WK OF STUDY DURATION, Promoter: NONE", "result": "15/30 (50%), 17/30 (56.7%), -13%, not significant"}, {"measurement": "tumour outcome (control, treated, inhibition, significance)", "setting": "Carcinogen: N-NITROSOBIS(2-OXOPROPYL)AMINE, 60599-38-4, Dose [Inhibitor]: 0, 0.5% IN DRINKING WATER FOR 49 WK POST CARCINOGEN TREATMENT (STUDY DURATION: 52 WK), Route [Inhibitor]: ORAL, Species: HAMSTER, Strain/Sex: SYRIAN GOLDEN/FEMALE, Target Tissue: Type of Lesion: LUNG: SQUAMOUS CELL CARCINOMA, Dose [Carcinogen]: 10 MG/KG BW 1/WK FOR FIRST 3 WK OF STUDY DURATION, Promoter: NONE", "result": "2/30 (7%), 2/30 (7%), 0%, not significant"}, {"measurement": "tumour outcome (control, treated, inhibition, significance)", "setting": "Carcinogen: N-NITROSOBIS(2-OXOPROPYL)AMINE, 60599-38-4, Dose [Inhibitor]: 0, 0.5% IN DRINKING WATER FOR 49 WK POST CARCINOGEN TREATMENT (STUDY DURATION: 52 WK), Route [Inhibitor]: ORAL, Species: HAMSTER, Strain/Sex: SYRIAN GOLDEN/FEMALE, Target Tissue: Type of Lesion: PANCREAS (DUCTAL): ADENOCARCINOMA, Dose [Carcinogen]: 10 MG/KG BW 1/WK FOR FIRST 3 WK OF STUDY DURATION, Promoter: NONE", "result": "18/30 (60%), 21/30 (70%), -17%, not significant"}, {"measurement": "tumour outcome (control, treated, inhibition, significance)", "setting": "Carcinogen: N-NITROSOBIS(2-OXOPROPYL)AMINE, 60599-38-4, Dose [Inhibitor]: 0, 0.5% IN DRINKING WATER FOR 49 WK POST CARCINOGEN TREATMENT (STUDY DURATION: 52 WK), Route [Inhibitor]: ORAL, Species: HAMSTER, Strain/Sex: SYRIAN GOLDEN/FEMALE, Target Tissue: Type of Lesion: THYROID: ADENOMA, Dose [Carcinogen]: 10 MG/KG BW 1/WK FOR FIRST 3 WK OF STUDY DURATION, Promoter: NONE", "result": "1/30 (3%), 0/30 (0%), 100%, not significant"}, {"measurement": "tumour outcome (control, treated, inhibition, significance)", "setting": "Carcinogen: N-NITROSOBIS(2-OXOPROPYL)AMINE, 60599-38-4, Dose [Inhibitor]: 0, 350 MG/KG 10 MIN PRIOR TO AND 3 HR POST CARCINOGEN DOSE (STUDY DURATION: 52 WK), Route [Inhibitor]: INTRAPERITONEAL, Species: HAMSTER, Strain/Sex: SYRIAN/MALE, FEMALE, Target Tissue: Type of Lesion: PANCREAS: DUCTAL/DUCTULAR CARCINOMA, Dose [Carcinogen]: 10 MG/KG ONCE, Promoter: NONE USED", "result": "5/60 (8%), 0/35 (0%), 100%, p<0.0001"}, {"measurement": "tumour outcome (control, treated, inhibition, significance)", "setting": "Carcinogen: N-NITROSOBIS(2-OXOPROPYL)AMINE, 60599-38-4, Dose [Inhibitor]: 0, 350 MG/KG 10 MIN PRIOR TO AND 3 HR POST CARCINOGEN DOSE (STUDY DURATION: 52 WK), Route [Inhibitor]: INTRAPERITONEAL, Species: HAMSTER, Strain/Sex: SYRIAN/MALE, FEMALE, Target Tissue: Type of Lesion: PANCREAS: DUCTULAR ADENOMA, Dose [Carcinogen]: 10 MG/KG ONCE, Promoter: NONE USED", "result": "25/60 (42%), 5/35 (14%), 67%, p=0.05"}, {"measurement": "tumour outcome (control, treated, inhibition, significance)", "setting": "Carcinogen: URETHANE, 51-79-6, Dose [Inhibitor]: 1.0% (1.02 MG/G BW/D) IN POWDERED DIET FOR 10 D POST CARCINOGEN DOSE (STUDY DURATION: 5 MO), Route [Inhibitor]: ORAL, Species: MOUSE, Strain/Sex: ICR/FEMALE, Target Tissue: Type of Lesion: LUNG: TUMOR, Dose [Carcinogen]: 1 MG/G ONCE, Promoter: NONE USED", "result": "27/31 (87%), 47/51 (92%), -6%, not calculated"}, {"measurement": "tumour outcome (control, treated, inhibition, significance)", "setting": "Carcinogen: URETHANE, 51-79-6, Dose [Inhibitor]: 2.5% (2.83 MG/G BW/D) IN POWDERED DIET FOR 10 D POST CARCINOGEN DOSE (STUDY DURATION: 5 MO), Route [Inhibitor]: ORAL, Species: MOUSE, Strain/Sex: ICR/FEMALE, Target Tissue: Type of Lesion: LUNG: TUMOR, Dose [Carcinogen]: 1 MG/G ONCE, Promoter: NONE USED", "result": "27/31 (87%), 47/54 (87%), 0%, not calculated"}]}]}
